# What was measured:
# [1] = target: T1, Alpha-2C adrenergic receptor (Homo sapiens, UniProt P18825); assay: Displacement of [125I]HEAT from adrenergic Alpha-2C receptor
# T1 sequence (P18825 whole entry): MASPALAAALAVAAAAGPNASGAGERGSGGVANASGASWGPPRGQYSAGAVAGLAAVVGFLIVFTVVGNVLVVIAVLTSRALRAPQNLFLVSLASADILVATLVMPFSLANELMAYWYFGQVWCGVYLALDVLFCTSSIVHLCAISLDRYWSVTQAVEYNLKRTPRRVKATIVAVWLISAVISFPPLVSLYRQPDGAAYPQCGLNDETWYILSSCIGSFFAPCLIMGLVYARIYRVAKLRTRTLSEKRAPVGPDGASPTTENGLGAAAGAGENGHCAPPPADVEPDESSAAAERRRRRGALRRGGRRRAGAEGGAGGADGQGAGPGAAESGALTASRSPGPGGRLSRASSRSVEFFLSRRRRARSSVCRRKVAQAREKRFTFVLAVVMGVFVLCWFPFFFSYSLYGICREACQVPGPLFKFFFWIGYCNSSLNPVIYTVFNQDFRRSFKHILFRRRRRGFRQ
# [2] = target: Histamine H2 receptor (Homo sapiens, UniProt P25021); assay: Displacement of [3H]tiotidine from human histamine H2 receptor
# [3] = target: T2, Alpha-2B adrenergic receptor (Homo sapiens, UniProt P18089); assay: Displacement of [125I]HEAT from adrenergic alpha2B receptor
# T2 sequence (P18089 whole entry): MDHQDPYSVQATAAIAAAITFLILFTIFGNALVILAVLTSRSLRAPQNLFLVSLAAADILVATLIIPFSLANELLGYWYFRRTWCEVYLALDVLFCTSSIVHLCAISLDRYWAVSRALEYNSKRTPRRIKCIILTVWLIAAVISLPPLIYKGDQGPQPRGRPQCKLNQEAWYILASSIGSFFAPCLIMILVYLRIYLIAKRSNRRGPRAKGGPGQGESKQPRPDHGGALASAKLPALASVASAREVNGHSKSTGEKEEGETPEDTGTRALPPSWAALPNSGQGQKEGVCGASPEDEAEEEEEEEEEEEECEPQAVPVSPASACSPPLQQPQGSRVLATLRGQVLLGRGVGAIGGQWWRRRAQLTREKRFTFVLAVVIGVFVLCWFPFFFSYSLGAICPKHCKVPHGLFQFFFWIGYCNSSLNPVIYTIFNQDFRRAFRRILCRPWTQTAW
# [4] = target: Sodium-dependent serotonin transporter (Homo sapiens, UniProt P31645); assay: Displacement of [3H]citalopram from human SERT
# [5] = target: T3, Alpha-2A adrenergic receptor (Homo sapiens, UniProt P08913); assay: Displacement of [125I]HEAT from adrenergic alpha2A receptor
# T3 sequence (P08913 whole entry): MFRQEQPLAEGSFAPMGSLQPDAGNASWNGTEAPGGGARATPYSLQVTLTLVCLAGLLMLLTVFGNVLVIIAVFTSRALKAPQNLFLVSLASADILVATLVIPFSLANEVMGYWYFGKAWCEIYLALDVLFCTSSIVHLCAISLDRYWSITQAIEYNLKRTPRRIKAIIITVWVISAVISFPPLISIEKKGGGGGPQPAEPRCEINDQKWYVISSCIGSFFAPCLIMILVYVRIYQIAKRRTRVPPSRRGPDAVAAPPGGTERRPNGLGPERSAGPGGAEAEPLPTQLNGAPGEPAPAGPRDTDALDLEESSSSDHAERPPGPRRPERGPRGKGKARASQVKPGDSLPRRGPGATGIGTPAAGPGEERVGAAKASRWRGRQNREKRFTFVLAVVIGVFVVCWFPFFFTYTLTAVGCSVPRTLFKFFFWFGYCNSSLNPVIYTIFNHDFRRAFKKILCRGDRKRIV
# [6] = target: Histamine H3 receptor (Homo sapiens, UniProt Q9Y5N1); assay: Displacement of [3H]alpha-methylhistamine from human histamine H3 receptor
# [7] = target: T4, Alpha-1A adrenergic receptor (Homo sapiens, UniProt P35348); assay: Displacement of [125I]HEAT from adrenergic alpha1A receptor
# T4 sequence (P35348 whole entry): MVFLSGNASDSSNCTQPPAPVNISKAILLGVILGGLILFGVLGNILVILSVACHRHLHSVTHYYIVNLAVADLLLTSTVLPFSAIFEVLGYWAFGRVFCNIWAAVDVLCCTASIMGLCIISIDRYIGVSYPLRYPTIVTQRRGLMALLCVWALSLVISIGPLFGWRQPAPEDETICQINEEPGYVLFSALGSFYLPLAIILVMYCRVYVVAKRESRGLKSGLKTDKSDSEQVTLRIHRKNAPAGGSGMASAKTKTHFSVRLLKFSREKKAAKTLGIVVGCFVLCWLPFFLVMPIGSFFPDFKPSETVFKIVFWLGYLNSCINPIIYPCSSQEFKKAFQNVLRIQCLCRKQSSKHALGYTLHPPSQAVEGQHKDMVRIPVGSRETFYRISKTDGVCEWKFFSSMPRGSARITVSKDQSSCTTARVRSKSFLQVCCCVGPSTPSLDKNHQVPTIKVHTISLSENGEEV
# [8] = Displacement of [3H]DTG from rat sigma 2 receptor in rat PC12 cells; format: cell-based; conditions: pc-12
# [9] = target: Mu-type opioid receptor (Homo sapiens, UniProt P35372); assay: Displacement of [3H]DAMGO from mu opioid receptor
# [10] = target: T5, D(4) dopamine receptor (Homo sapiens, UniProt P21917); assay: Displacement of [3H]N-methylspiperone from dopamine D4 receptor
# T5 sequence (P21917 whole entry): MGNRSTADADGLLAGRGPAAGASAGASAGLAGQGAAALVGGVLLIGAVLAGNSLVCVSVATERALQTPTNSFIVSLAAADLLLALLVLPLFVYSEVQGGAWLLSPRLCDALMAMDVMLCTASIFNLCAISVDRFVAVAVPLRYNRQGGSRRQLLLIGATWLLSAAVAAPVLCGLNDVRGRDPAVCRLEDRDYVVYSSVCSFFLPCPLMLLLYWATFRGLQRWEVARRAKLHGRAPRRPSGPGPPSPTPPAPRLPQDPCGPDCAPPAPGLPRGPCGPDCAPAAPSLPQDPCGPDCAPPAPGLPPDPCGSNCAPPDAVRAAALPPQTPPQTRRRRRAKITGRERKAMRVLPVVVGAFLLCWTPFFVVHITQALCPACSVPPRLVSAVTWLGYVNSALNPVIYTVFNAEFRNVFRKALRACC
# [11] = target: Histamine H1 receptor (Homo sapiens, UniProt P35367); assay: Displacement of [3H]pyrilamine from human histamine H1 receptor
# [12] = target: Sigma non-opioid intracellular receptor 1 (Rattus norvegicus, UniProt Q9R0C9); assay: Displacement of [3H]Pentazocine from rat sigma 1 receptor in rat PC12 cells; format: cell-based, PC-12
# [13] = Dissociation constant, pKa of the compound; format: physicochemical
# [14] = Lipophilicity, log D of the compound; format: physicochemical; conditions: octanol/water
# Histamine H2 receptor, sequence (P25021 whole entry): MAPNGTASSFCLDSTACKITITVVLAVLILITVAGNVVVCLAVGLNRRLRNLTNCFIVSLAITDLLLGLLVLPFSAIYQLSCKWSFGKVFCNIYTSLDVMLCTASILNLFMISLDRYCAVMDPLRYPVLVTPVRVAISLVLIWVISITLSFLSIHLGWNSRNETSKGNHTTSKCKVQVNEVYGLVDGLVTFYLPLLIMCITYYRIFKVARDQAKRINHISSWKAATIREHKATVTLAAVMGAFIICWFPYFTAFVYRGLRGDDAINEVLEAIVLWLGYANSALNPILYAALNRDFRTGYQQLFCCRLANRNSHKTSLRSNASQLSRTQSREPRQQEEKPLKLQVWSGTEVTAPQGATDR
# Sodium-dependent serotonin transporter, sequence (P31645 whole entry): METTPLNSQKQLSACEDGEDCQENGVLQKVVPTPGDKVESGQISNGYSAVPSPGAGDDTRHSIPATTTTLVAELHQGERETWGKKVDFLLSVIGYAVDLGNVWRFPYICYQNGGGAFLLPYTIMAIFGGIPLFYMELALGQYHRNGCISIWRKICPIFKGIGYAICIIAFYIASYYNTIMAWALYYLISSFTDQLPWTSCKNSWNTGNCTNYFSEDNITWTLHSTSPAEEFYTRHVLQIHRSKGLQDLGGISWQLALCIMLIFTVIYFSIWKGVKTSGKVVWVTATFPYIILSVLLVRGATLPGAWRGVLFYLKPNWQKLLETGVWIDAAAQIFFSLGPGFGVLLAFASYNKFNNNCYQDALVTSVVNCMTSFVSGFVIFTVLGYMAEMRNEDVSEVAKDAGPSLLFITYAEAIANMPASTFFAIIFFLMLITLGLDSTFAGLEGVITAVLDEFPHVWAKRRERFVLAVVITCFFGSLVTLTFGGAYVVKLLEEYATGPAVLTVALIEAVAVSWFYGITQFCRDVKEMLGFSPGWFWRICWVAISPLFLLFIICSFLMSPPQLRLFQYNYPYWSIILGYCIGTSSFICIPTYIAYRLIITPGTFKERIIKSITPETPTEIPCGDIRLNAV
# Sigma non-opioid intracellular receptor 1, sequence (Q9R0C9 whole entry): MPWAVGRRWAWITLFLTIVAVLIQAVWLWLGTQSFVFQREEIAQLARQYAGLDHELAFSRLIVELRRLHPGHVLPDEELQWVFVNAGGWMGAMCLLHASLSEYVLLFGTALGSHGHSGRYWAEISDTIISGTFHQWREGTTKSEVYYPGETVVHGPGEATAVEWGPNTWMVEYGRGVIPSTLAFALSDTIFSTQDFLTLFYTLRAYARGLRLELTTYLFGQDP
# Histamine H1 receptor, sequence (P35367 whole entry): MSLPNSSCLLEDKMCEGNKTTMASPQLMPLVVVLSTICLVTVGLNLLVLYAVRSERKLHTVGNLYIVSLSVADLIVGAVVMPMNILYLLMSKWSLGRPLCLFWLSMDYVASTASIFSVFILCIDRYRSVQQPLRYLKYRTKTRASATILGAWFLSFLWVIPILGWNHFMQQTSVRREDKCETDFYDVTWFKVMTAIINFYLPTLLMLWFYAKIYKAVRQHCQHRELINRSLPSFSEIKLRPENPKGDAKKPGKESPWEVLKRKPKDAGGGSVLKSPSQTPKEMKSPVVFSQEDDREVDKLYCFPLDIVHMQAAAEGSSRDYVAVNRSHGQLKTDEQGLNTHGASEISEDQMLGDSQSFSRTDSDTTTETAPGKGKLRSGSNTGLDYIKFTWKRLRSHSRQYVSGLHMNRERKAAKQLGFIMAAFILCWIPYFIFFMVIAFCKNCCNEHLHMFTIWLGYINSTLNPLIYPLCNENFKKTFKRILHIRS
# Mu-type opioid receptor, sequence (P35372 whole entry): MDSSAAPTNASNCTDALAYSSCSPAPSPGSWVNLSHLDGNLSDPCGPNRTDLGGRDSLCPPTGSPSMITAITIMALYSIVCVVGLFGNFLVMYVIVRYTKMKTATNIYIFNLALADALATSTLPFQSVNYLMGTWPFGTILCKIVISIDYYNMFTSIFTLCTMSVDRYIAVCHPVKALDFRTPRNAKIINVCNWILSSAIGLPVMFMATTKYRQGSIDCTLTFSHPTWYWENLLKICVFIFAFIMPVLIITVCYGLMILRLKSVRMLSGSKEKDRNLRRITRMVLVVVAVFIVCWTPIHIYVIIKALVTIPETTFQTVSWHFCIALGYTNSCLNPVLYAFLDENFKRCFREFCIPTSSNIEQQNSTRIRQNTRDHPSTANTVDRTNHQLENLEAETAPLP
# Histamine H3 receptor, sequence (Q9Y5N1 whole entry): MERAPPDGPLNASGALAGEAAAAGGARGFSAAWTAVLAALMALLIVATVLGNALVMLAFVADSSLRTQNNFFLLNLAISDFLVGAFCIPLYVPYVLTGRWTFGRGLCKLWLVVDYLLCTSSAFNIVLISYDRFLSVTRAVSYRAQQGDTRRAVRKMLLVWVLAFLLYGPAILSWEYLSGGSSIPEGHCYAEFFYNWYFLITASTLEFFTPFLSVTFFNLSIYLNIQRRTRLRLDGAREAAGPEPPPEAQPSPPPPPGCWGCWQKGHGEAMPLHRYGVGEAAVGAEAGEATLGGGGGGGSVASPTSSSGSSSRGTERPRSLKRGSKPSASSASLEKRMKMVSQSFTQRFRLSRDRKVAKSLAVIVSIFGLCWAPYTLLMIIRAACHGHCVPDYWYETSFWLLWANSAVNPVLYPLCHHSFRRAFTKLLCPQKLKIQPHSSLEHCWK
SMILES,Ki [1],Ki [2],Ki [3],Ki [4],Ki [5],Ki [6],Ki [7],Ki [8],Ki [9],Ki [10],Ki [11],Ki [12],pKa [13],logD [14],pKa ([13]; read-out: pKa)
CNC(=O)C(CCN1CCC(O)(c2ccc(Cl)cc2)CC1)(c1ccccc1)c1ccccc1,2.4 nM,1.7 nM,7 nM,6.2 nM,1 nM,9.3 nM,9.9 nM,1.9 nM,0.6 nM,1.1 nM,4.2 nM,0.8 nM,7.2,–,–
[11CH3]NC(=O)C(CCN1CCC(O)(c2ccc(Cl)cc2)CC1)(c1ccccc1)c1ccccc1,–,–,–,–,–,–,–,–,–,–,–,–,–,2.6,7.96
